From US12630552B2, “Inhibitors of KRAS G12C” (BEIGENE, LTD., priority 2019, dated 2026)

The molecules below were run against T1, KRAS (aa 1-169) G12C, C51S, C80L, C118S (Homo sapiens, UniProt P01116, C118S/C51S/C80L/G12C) (assay: KRAS G12C SOS1-mediated nucleotide exchange / GST-cRaf RBD binding FRET assay). Conditions: GDP-loaded KRAS G12C pre-incubated with compound at 24° C. for 3 hrs; SOS1, GTPγS and GST-cRaf RBD added; FRET 665 nm/620 nm.
T1 construct: The KRAS (aa 1-169) G12C, C51S, C80L, C118S with a His-tag; made in house
T1 sequence (P01116 1-169 isoform P01116-2 G12C/C51S/C80L/C118S): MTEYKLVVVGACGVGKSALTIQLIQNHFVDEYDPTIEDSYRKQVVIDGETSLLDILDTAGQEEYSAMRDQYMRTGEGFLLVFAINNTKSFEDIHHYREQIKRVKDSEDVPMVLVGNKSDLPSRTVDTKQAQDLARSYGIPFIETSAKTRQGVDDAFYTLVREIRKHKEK
Assay type: biochemical
Method: Biochemical Functional Assay:
The KRAS (aa 1-169) G12C, C51S, C80L, C118S with a His-tag was expressed, purified and loaded with GDP in house. All protein and substrate solutions were prepared in assay buffer containing 25 mM HEPES pH7.5, 10 mM MgCl2, and 0.01% Triton X-100. Purified GDP-loaded KRAS (aa 1-169) G12C, C51S, C80L, C118S protein was pre-incubated with a serially diluted compound at 24° C. for 3 hrs. Purified SOS1 (aa 564-1049) protein, GTPγS (Sigma) and GST-cRaf RBD (aa 1-149) were then added to each well and incubated at 24° C. for additional 3 hrs. […] Following the incubation, Mab Anti-6HIS-Tb cryptate (Cisbio) and Mab Anti GST-XL665 (Cisbio) were added and further incubated at 24° C. for 3 hrs. The binding interaction between active GTPγS KRAS G12C and GST-cRaf RBD brings the Tb and XL665 into close proximity enabling an increased FRET signal (Ex337 nm, Em665 nm/620 nm). The inhibition percentage of nucleotide exchange reaction in presence of increasing concentrations of compounds was calculated based on the ratio of fluorescence at 665 nm to that at 620 nm detected on a BMG PHERAstar FSX instrument. The IC50 value of each compound was calculated from fitting the data to the four-parameter logistic model by Dotmatics.
Work on `C=CC(=O)N1CCN(c2nc(OCC3CCCN3C)nc3c2CN(C2Cc4cccc5cccc2c45)C3)CC1CC#N` (single isomer, unassigned) [Example 15 (P2)] yielded an IC50 of 5.27 nM.
Work on `C=CC(=O)N1CCN(c2nc(OC[C@@H]3CCCN3C)nc3c2CN(Cc2cccc4ccccc24)C3)CC1` [Example 1, (S)-1-(4-(2-((1-methylpyrrolidin-2-yl)methoxy)-6-(naphthalen-1-ylmethyl)-6,7-dihydro-5H-pyrrolo[3,4-d]pyrimidin-4-yl)piperazin-1-yl)prop-2-en-1-one] yielded an IC50 of 3280 nM.
In the case of `C=CC(=O)N1CCN(c2nc(OC[C@@H]3CCCN3C)nc3c2CN(C(=O)c2cc(N)cc4ccccc24)C3)C[C@@H]1CC#N` [Example 50], the IC50 is reported as 6.16 nM.
In the case of `C=CC(=O)N1CCN(c2nc(OC3CCN(C)CC3)nc3c2CN(Cc2cccc4ccccc24)C3)C[C@@H]1CC#N` [Example 18, (S)-2-(1-acryloyl-4-(2-((1-methylpiperidin-4-yl)oxy)-6-(naphthalen-1-ylmethyl)-6,7-dihydro-5H-pyrrolo[3,4-d]pyrimidin-4-yl)piperazin-2-yl)acetonitrile], the IC50 is reported as 1560 nM.
For `CN(C)C/C=C/C(=O)N1CCN(c2nc(OC[C@@H]3CCCN3C)nc3c2CN(Cc2cccc4ccccc24)C3)CC1` [Example 2, (S, E)-4-(dimethylamino)-1-(4-(2-((1-methylpyrrolidin-2-yl)methoxy)-6-(naphthalen-1-ylmethyl)-6,7-dihydro-5H-pyrrolo[3,4-d]pyrimidin-4-yl)piperazin-1-yl)but-2-en-1-one], the IC50 was 46000 nM.
`C=CC(=O)N1CCN(c2nc(OC[C@@H]3CCCN3C)nc3c2CN(C(=O)c2cc(O)cc4ccccc24)C3)C[C@@H]1CC#N` [Example 29, 2-((S)-1-acryloyl-4-(6-(3-hydroxy-1-naphthoyl)-2-(((S)-1-methylpyrrolidin-2-yl)methoxy)-6,7-dihydro-5H-pyrrolo[3,4-d]pyrimidin-4-yl)piperazin-2-yl)acetonitrile] showed an IC50 of 2.42 nM.
Molecule `C=CC(=O)N1CCN(c2nc(OC[C@@H]3CCCN3C)nc3c2CN(Cc2cc(O)ccc2F)C3)C[C@@H]1CC#N` [Example 22, 2-((S)-1-acryloyl-4-(6-(2-fluoro-5-hydroxybenzyl)-2-(((S)-1-methylpyrrolidin-2-yl)methoxy)-6,7-dihydro-5H-pyrrolo[3,4-d]pyrimidin-4-yl)piperazin-2-yl)acetonitrile] has an IC50 of 9.63 nM.
Molecule `C=CC(=O)N1CCN(c2nc(OC[C@@H]3CCCN3C)nc3c2CN(C(=O)c2cccc(C)c2Cl)C3)C[C@@H]1CC#N` [Example 37, 2-((S)-1-acryloyl-4-(6-(2-chloro-3-methylbenzoyl)-2-(((S)-1-methylpyrrolidin-2-yl)methoxy)-6,7-dihydro-5H-pyrrolo[3,4-d]pyrimidin-4-yl)piperazin-2-yl)acetonitrile] has an IC50 of 27.9 nM.
Work on `C=CC(=O)N1CCN(c2nc(OC[C@@H]3CCCN3C)nc3c2CN(Cc2cc(O)cc4ccccc24)C3)C[C@@H]1CC#N` [Example 25, 2-((S)-1-acryloyl-4-(6-((3-hydroxynaphthalen-1-yl)methyl)-2-(((S)-1-methylpyrrolidin-2-yl)methoxy)-6,7-dihydro-5H-pyrrolo[3,4-d]pyrimidin-4-yl)piperazin-2-yl)acetonitrile] yielded an IC50 of 3.27 nM.
`C=CC(=O)N1CCN(c2nc(OC[C@@H]3CCCN3C)nc3c2CN(Cc2cccc4c2CCO4)C3)C[C@@H]1CC#N` [Example 21, 2-((S)-1-acryloyl-4-(6-((2,3-dihydrobenzofuran-4-yl)methyl)-2-(((S)-1-methylpyrrolidin-2-yl)methoxy)-6,7-dihydro-5H-pyrrolo[3,4-d]pyrimidin-4-yl)piperazin-2-yl)acetonitrile] showed an IC50 of 92.5 nM.
`C=CC(=O)N1CCN(c2nc(OC[C@@H]3CCCN3C)nc3c2CN(C(=O)c2c(O)cccc2F)C3)C[C@@H]1CC#N` [Example 36, 2-((S)-1-acryloyl-4-(6-(2-fluoro-6-hydroxybenzoyl)-2-(((S)-1-methylpyrrolidin-2-yl)methoxy)-6,7-dihydro-5H-pyrrolo[3,4-d]pyrimidin-4-yl)piperazin-2-yl)acetonitrile] gave an IC50 of 238 nM.
With `C=CC(=O)N1CCN(c2nc(OC[C@@H]3CCCN3C)nc3cn(Cc4cccc5ccccc45)cc23)C[C@@H]1CC#N` [Example 7, 2-((S)-1-acryloyl-4-(2-(((S)-1-methylpyrrolidin-2-yl)methoxy)-6-(naphthalen-1-ylmethyl)-6H-pyrrolo[3,4-d]pyrimidin-yl)piperazin-2-yl)acetonitrile] the IC50 was 174 nM.
With `C=CC(=O)N1CCN(c2nc(OC[C@@H]3CCCN3C)nc3c2CN(C(=O)c2cccc4cccc(Br)c24)C3)C[C@@H]1CC#N` [Example 52] the IC50 was 8.51 nM.
`C=CC(=O)N1CCN(c2nc(N3CC(N(C)C)C3)nc3c2CN(C2Cc4cccc5cccc2c45)C3)CC1CC#N` (single isomer, unassigned) [Example 16 (P2)] gave an IC50 of 256 nM.
Molecule `C=CC(=O)N1CCN(c2nc(OC3CCN(C4CCOCC4)CC3)nc3c2CN(C2Cc4cccc5cccc2c45)C3)C[C@@H]1CC#N` (stereo partly drawn) [Example 12, 2-((2S)-1-acryloyl-4-(6-(1,2-dihydroacenaphthylen-1-yl)-2-((1-(tetrahydro-2H-pyran-4-yl)piperidin-4-yl)oxy)-6,7-dihydro-5H-pyrrolo[3,4-d]pyrimidin-4-yl)piperazin-2-yl)acetonitrile] has an IC50 of 379 nM.
Molecule `C=CC(=O)N1CCN(c2nc(OC[C@@H]3CCCN3C)nc3c2CN(C(=O)c2cccc4cccc(C5CC5)c24)C3)C[C@@H]1CC#N` [Example 35, 2-((S)-1-acryloyl-4-(6-(8-cyclopropyl-1-naphthoyl)-2-(((S)-1-methylpyrrolidin-2-yl)methoxy)-6,7-dihydro-5H-pyrrolo[3,4-d]pyrimidin-4-yl)piperazin-2-yl)acetonitrile] has an IC50 of 256 nM.
With `C=CC(=O)N1CCN(c2nc(OC[C@@H]3CCCN3C)nc3c2CN(c2cccc4cccc(C)c24)C3)C[C@@H]1CC#N` [Example 28, 2-((S)-1-acryloyl-4-(6-(8-methylnaphthalen-1-yl)-2-(((S)-1-methylpyrrolidin-2-yl)methoxy)-6,7-dihydro-5H-pyrrolo[3,4-d]pyrimidin-4-yl)piperazin-2-yl)acetonitrile] the IC50 was 178 nM.
Work on `C=CC(=O)N1CCN(c2nc(OC[C@@H]3CCCN3C)nc3c2CN(C2CCc4ccccc42)C3)C[C@@H]1CC#N` (some centres unmarked) [Example 45] yielded an IC50 of 12.6 nM.
Molecule `C=CC(=O)N1CCN(c2nc(OC[C@@H]3CCCN3C)nc3c2CN(C(=O)c2cc(O)ccc2F)C3)C[C@@H]1CC#N` [Example 46] has an IC50 of 172 nM.
Work on `C=CC(=O)N1CCN(c2nc(OC[C@@H]3C[C@@H](O)CN3C)nc3c2CN(C2Cc4cccc5cccc2c45)C3)C[C@@H]1CC#N` (some centres unmarked) [Example 51] yielded an IC50 of 16.1 nM.
`C=CC(=O)N1CCN(c2nc(OC[C@@H]3CCCN3C)nc3c2CN(Cc2c(O)cccc2F)C3)C[C@@H]1CC#N` [Example 23, 2-((S)-1-acryloyl-4-(6-(2-fluoro-6-hydroxybenzyl)-2-(((S)-1-methylpyrrolidin-2-yl)methoxy)-6,7-dihydro-5H-pyrrolo[3,4-d]pyrimidin-4-yl)piperazin-2-yl)acetonitrile] was tested, and the IC50 was 28.1 nM.
`C=CC(=O)N1CCN(c2nc(OC[C@@H]3CCCN3C)nc3c2CN(C2Cc4cccc5cc(O)cc2c45)C3)C[C@@H]1CC#N` (some centres unmarked) [Example 55] was tested, and the IC50 was less than 5.1 nM.
Molecule `C=CC(=O)N1CCN(c2nc(OC[C@@H]3CCCN3C)nc3c2CN(C(=O)c2cccc4ccccc24)C3)C[C@@H]1CC#N` [Example 32, 2-((S)-4-(6-(1-naphthoyl)-2-(((S)-1-methylpyrrolidin-2-yl)methoxy)-6,7-dihydro-5H-pyrrolo[3,4-d]pyrimidin-4-yl)-1-acryloylpiperazin-2-yl)acetonitrile] has an IC50 of 39.5 nM.
